In ChEMBL document CHEMBL4842322, “A naphthalimide-polyamine conjugate preferentially accumulates in hepatic carcinoma metastases as a lysosome-targeted antimetastatic agent” (Eur J Med Chem, 2021):
Calls of active or inactive are those of the source. No cut-off for these calls is given here.

Experiments:
[1] = Antimetastatic activity against human HCC cells xenografted in BALB/c mouse assessed as reduction lung metastatic nodules at 3 mg/kg, iv administered once every 2 days for 14 days; format: functional; details: 336 h, time 14 day
HepG2 [2] = assay: Inhibition of tumor metastasis in human HepG2 cells assessed as downregulation of LC3-II gene expression level at 5 to 15 uM measured after 24 hrs by qRT-PCR analysis; format: functional, cell-based; details: dose 5-15 µM
HepG2 [3] = assay: Inhibition of tumor metastasis in human HepG2 cells assessed as upregulation of SSAT gene expression level at 5 to 15 uM measured after 24 hrs by qRT-PCR analysis; format: functional, cell-based; details: dose 5-15 µM
MDA-MB-231 [4] = assay: Potency index, ratio of cisplatin IC50 to test compound IC50 for human MDA-MB-231 cells by MTT assay; format: functional
[5] = Selectivity index, ratio of IC50 for human HL7702 cells to IC50 for human Huh-7 cells; format: toxicity; details: HL7702 cells and Huh-7 cells, read-out: Ratio IC50
HepG2 [6] = assay: Inhibition of tumor metastasis in human HepG2 cells assessed as downregulation of HMGB1 gene expression level measured after 24 hrs by qRT-PCR analysis; format: functional, cell-based; details: dose 5-15 µM
[7] = Upregulation of PAO expression in human HepG2 cells at 10 uM measured after 24 hrs relative to control; format: functional
Huh-7 [8] = assay: Potency index, ratio of cisplatin IC50 to test compound IC50 for human Huh-7 cells by MTT assay; format: functional
A549 [9] = assay: Inhibition of tumor metastasis in cisplatin-resistant human A549 cells assessed as downregulation of LC3-II protein expression level at 5 to 15 uM measured after 24 hrs by western blot analysis; format: functional, cell-based; details: dose 5-15 µM
[10] = Drug uptake in lysosomes of human HepG2 cells at 10 uM incubated for 8 hrs by Lyso-tracker dye based laser confocal microscopy; format: ADME, subcellular, Lysosome; details: hepg2, 8 h
[11] = Antimetastatic activity against human HCC cells xenografted in BALB/c mouse assessed as reduction lung metastatic nodules at 1 mg/kg, iv administered once every 2 days for 14 days; format: functional; details: 336 h, time 14 day
[12] = Toxicity in BALB/c mouse xenografted with human HCC cells assessed as effect on lung weight index at 1 to 5 mg/kg, iv administered once daily for 7 days; format: organism-based; details: in vivo, 168 h, dose 1-5 mg/kg, time 7 day
HepG2 [13] = assay: Cytotoxicity against human HepG2 cells assessed as inhibitory of cell growth measured after 24 hrs by MTT assay; format: functional, cell-based; details: HepG2, 24 h
[14] = Toxicity in BALB/c mouse xenografted with human HCC cells assessed as effect on spleen weight index at 1 to 5 mg/kg, iv administered once daily for 7 days; format: organism-based; details: in vivo, 168 h, dose 1-5 mg/kg, time 7 day
A549 [15] = assay: Potency index, ratio of amonafide IC50 to test compound IC50 for human A549 cells by MTT assay; format: functional
HepG2 [16] = assay: Potency index, ratio of cisplatin IC50 to test compound IC50 for human HepG2 cells by MTT assay; format: functional
Huh-7 [17] = assay: Cytotoxicity against human Huh-7 cells assessed as inhibition of cell growth incubated for 48 hrs by MTT assay; format: functional, cell-based; details: Huh-7, 48 h
HepG2 [18] = assay: Cytotoxicity against human HepG2 cells assessed as inhibition of cell growth incubated for 48 hrs by MTT assay; format: functional, cell-based; details: HepG2, 48 h
[19] = Toxicity in BALB/c mouse xenografted with human HCC cells assessed as effect on body weight at 1 to 5 mg/kg, iv administered once every 2 days for 14 days; format: organism-based; details: in vivo, 336 h, dose 1-5 mg/kg, time 14 day
MDA-MB-231 [20] = assay: Cytotoxicity against human MDA-MB-231 cells assessed as inhibition of cell growth incubated for 48 hrs by MTT assay; format: functional, cell-based; details: MDA-MB-231, 48 h
A549 [21] = assay: Cytotoxicity against cisplatin-resistant human A549 cells assessed as inhibition of cell growth incubated for 48 hrs by MTT assay; format: functional, cell-based; details: A549, 48 h
HepG2 [22] = assay: Downregulation of Spermidine contents in human HepG2 cells measured after 24 hrs by HPLC analysis; format: functional, cell-based
[23] = Drug uptake in mitochondria of human HepG2 cells at 10 uM incubated for 8 hrs by Mito-tarcker dye based laser confocal microscopy; format: ADME; details: hepg2, 8 h
A549 [24] = assay: Inhibition of tumor metastasis in cisplatin-resistant human A549 cells assessed as upregulation of p53 expression level at 5 to 15 uM measured after 24 hrs by western blot analysis; format: functional, cell-based; details: dose 5-15 µM
[25] = Potency index, ratio of cisplatin IC50 to test compound IC50 for cisplatin-resistant human A549 cells by MTT assay; format: functional
[26] = Toxicity in BALB/c mouse xenografted with human HCC cells assessed as effect on liver weight index at 1 to 5 mg/kg, iv administered once daily for 7 days; format: organism-based; details: in vivo, 168 h, dose 1-5 mg/kg, time 7 day
[27] = Ratio of amonafide IC50 to test compound IC50 for human MDA-MB-231 cells by MTT assay; format: functional
HepG2 [28] = assay: Downregulation of Putrescine contents in human HepG2 cells measured after 24 hrs by HPLC analysis; format: functional, cell-based
Huh-7 [29] = assay: Cytotoxicity against human Huh-7 cells assessed as inhibition of cell growth measured after 24 hrs by MTT assay; format: functional, cell-based; details: Huh-7, 24 h
A549 [30] = assay: Inhibition of tumor metastasis in cisplatin-resistant human A549 cells assessed as upregulation of p62 protein expression level at 5 to 15 uM measured after 24 hrs by western blot analysis; format: functional, cell-based; details: dose 5-15 µM
[31] = Toxicity in BALB/c mouse xenografted with human HCC cells assessed as effect on kidney weight index at 1 to 5 mg/kg, iv administered once daily for 7 days; format: organism-based; details: in vivo, 168 h, dose 1-5 mg/kg, time 7 day
[32] = Antitumor activity against human HCC cells xenografted in BALB/c mouse assessed as inhibition of tumor weight at 5 mg/kg, iv administered once daily for 7 days; format: functional; details: 168 h, time 7 day

Question: Which inhibition in vivo at 3 mg/kg [1] does the source give for `NCCCCNCCCCNCCCCN1C(=O)c2cccc3cc(NC(=O)CN)cc(c23)C1=O` here?
Answer: 65.5%

Question: And the inhibition (HepG2 [2])?
Answer: Active

Question: And the inhibition (HepG2 [3])?
Answer: Active

Question: And the “Ratio IC50” value (MDA-MB-231 [4])?
Answer: 2.11

Question: And the selectivity ratio [5]?
Answer: 6.43

Question: And the inhibition (HepG2 [6])?
Answer: Dose-Dependent Effect

Question: And the “fold change (FC)” value [7]?
Answer: 1.5

Question: What about the “Ratio IC50” value (Huh-7 [8]) of the same molecule?
Answer: 15.33

Question: And the inhibition (A549 [9])?
Answer: Active

Question: And the Drug uptake [10]?
Answer: Active

Question: What about the inhibition in vivo at 1 mg/kg [11] of the same molecule?
Answer: 58.5%

Question: What about the Activity [12] of the same molecule?
Answer: Non-Toxic

Question: And the IC50 (HepG2 [13])?
Answer: 1320 nM

Question: And the Activity [14]?
Answer: Non-Toxic

Question: And the “Ratio IC50” value (A549 [15])?
Answer: 1.15

Question: What about the “Ratio IC50” value (HepG2 [16]) of the same molecule?
Answer: 6.74

Question: What about the IC50 (Huh-7 [17]) of the same molecule?
Answer: 980 nM

Question: And the IC50 (HepG2 [18])?
Answer: 1320 nM

Question: And the Activity [19]?
Answer: Non-Toxic

Question: And the IC50 (MDA-MB-231 [20])?
Answer: 15400 nM

Question: What about the IC50 (A549 [21]) of the same molecule?
Answer: 15500 nM

Question: And the inhibition (HepG2 [22])?
Answer: Active

Question: And the Drug uptake [23]?
Answer: Not Active

Question: And the inhibition (A549 [24])?
Answer: Active

Question: And the “Ratio IC50” value [25]?
Answer: 2.76

Question: And the Activity [26]?
Answer: Non-Toxic

Question: What about the “Ratio IC50” value [27] of the same molecule?
Answer: 0.99

Question: And the inhibition (HepG2 [28])?
Answer: Active

Question: And the IC50 (Huh-7 [29])?
Answer: 980 nM

Question: And the inhibition (A549 [30])?
Answer: Active

Question: What about the Activity [31] of the same molecule?
Answer: Non-Toxic

Question: What about the inhibition in vivo at 5 mg/kg [32] of the same molecule?
Answer: 76%
